For one data set, the system named is ICAM-1 protein. The data set can be described thus: In situ ICAM-1 ELISA for surface ICAM-1 in INF-γ/TNF-α stimulated Calu-1 cells. It counts as cell-based, human. Conditions: relative to UC3. The method, then: In a 96-well plate, 5,000 Calu-1 cells/well were seeded in 100 uL of complete growth media and incubated overnight at 37 C with 5% CO2. The cells were transfected with siNAs using RNAiMax (Invitrogen, Cat# 13778-150); final concentrations of siRNAs are 10 nM-0.0000097 nM. The amount of RNAiMax in each well is 0.3 uL. The siNAs were incubated for 6 hours. The medium was replaced with 95 uL of fresh complete growth medium and add 5 uL/well of INF-γ/TNF-α at 10 ng/ml final concentration. The cells were incubated for 24, 48, and 72 hours.
In situ ELISA for surface ICAM-1 was performed as follows. The cells were washed ×2 in PBS. The wells were pre-blocked with Super Block buffer (Pierce, Cat # 37535) for 1.5 hours at 37° C. The cells were washed ×3 with PBS. The primary monoclonal antibody (Abcam, clone MEM-111, Cat ab2213) was diluted at 1 in 3000 in Super Block buffer. 50 μl of primary antibody was added per well. The wells were shook gently at RT for 1 hour. The cells were washed ×3 with PBS. The rabbit polyclonal secondary antibody (Abcam, Cat ab6728)was diluted 1:1000 in Super Block buffer. 50 μl secondary antibody were added per well. The mixture was incubated at 37° C. for 1 hour. The cells were washed ×3 with PBS. 50 μl of TMB solution (Sigma, Cat# T-8665) was added per well and incubated in the dark for 10 minutes. 50 μl Stop solution was added. The absorbance was read at 450 nm.
The effects of siNAs on ICAM-1 protein level were compared to each other and to the effect of the universal control using a multiple comparison ANOVA test to obtain a 95% confidence interval.
Various siNAs were also evaluated for their potential to knock-down ICAM-1 protein using an ELISA assay. Six siNAs were tested in an ICAM-1 ELISA assay across a range of concentrations of siNAs. The absorbance of each sample was normalized to the average absorbance obtained from the wells that were not stimulated with INF-γ/TNF-α (n=6). These wells served as a background control (see Table 6).
Background: ELISA stands for enzyme-linked immunosorbent assay.

Data set [1] relates to human ICAM-2 mRNA transcript. As to the kind of experiment: ICAM-2 mRNA specificity screen in human cells (Taqman RT-PCR). The data set is classed as cell-based. Conditions: mean ± S.D., three independent experiments. The protocol:
Calu-1 (human; ATCC cat# HTB-54): Cells were cultured at 37° C. in the presence of 5% CO2 and grown in McCoy's 5a medium supplemented with fetal bovine serum at a final concentration of 10% and 100 μg/mL of streptomycin and 100 U/mL penicillin.
Calu-1 cells were plated in all wells of a tissue-culture treated, 96-well plate at final counts of 5,000 cells/well in 100 μL of appropriate culture media. Cells were cultured for 24 hours after plating at 37° C. in the presence of 5% CO2.
After 24 hours, complexes containing siNA and RNAiMax were created as follows. A solution of RNAiMax diluted 33-fold in OPTI-MEM was prepared. In parallel, solutions of the siNAs for testing were prepared to a final concentration of 120 nM in OPTI-MEM. After incubation of RNAiMax/OPTI-MEM solution at room temperature for 5 min, an equal volume of the siNA solution and the RNAiMax solution were added together for each of the siNAs. […] This solution was incubated at room temperature for 20 minutes. After incubation, 20 uL of the solution was added to each of the relevant wells. The final concentration of siNA in each well was 10 nM and the final volume of RNAiMax in each well was 0.3 uL.
A series of probes and primers were used to detect the various mRNA transcripts of the genes of ICAM-1 and ICAM-2 in human cell lines (see Table 2). All the Taqman probes and primers for the experiments here-in described were supplied as pre-validated sets by Applied Biosystems, Inc., (see Table 2). The assays were performed on an ABI 7900 instrument, according to the manufacturer's instructions.
A TaqMan Gene Expression Master Mix (provided in the Cells-to-CT™, Applied Biosystems, Cat # 4399002) was used. The PCR reactions were carried out at 50° C. for 2 min, 95° C. for 20 min followed by 40 cycles at 95° C. for 15 secs and 60° C. for 1 min.
The expression level of the gene of interest and % knock-down was calculated using Comparative Ct method: […]
The non-targeting control siNA was, unless otherwise indicated, chosen as the value against which to calculate the % knock-down, because it is the most relevant control.
The specificity the six siNAs in Table 4 was also assessed. The siNAs were tested at 1 nM concentration to determine the effect of the ICAM-1 siNAs on the mRNA transcript of human ICAM-2.
For orientation: Real-time PCR tracks product formation cycle by cycle.

[invAb] = inverted abasic unit; m = 2'-O-methyl; r = 2'-OH (RNA); f = 2'-fluoro

“29285-DC: siNA duplex, ICAM-1 target site 537 (h); sense B GGAAcAAccGGAAGGuGuA TTB; antisense UACAccuuccGGuuGuuccUU (sense GGAACAACCGGAAGGUGUATT; antisense UACACCUUCCGGUUGUUCCUU; sense: DNA at AGT, 2'-fluoro at CU, [invAb] at 5' end, 3' end, backbone not given here; antisense: sugars from the 5' end rrrmffffffmmffmffffmm, backbone not given here)”: in the data set with ICAM-1 protein, the “ICAM-1 Protein % KD 24 h, 10 nM” value was 59%; the “ICAM-1 Protein % KD 48 h, 10 nM” value worked out at 52%; the “ICAM-1 Protein % KD 72 h, 10 nM” value is 36%. Besides, the “% KD ICAM-2 1 nM” value in data set [1] was 11 ± 7%.
The corresponding values for “29286-DC: siNA duplex, ICAM-1 target site 1838 (h); sense B cGGAAGAucAAGAAAuAcA TTB; antisense UGUAuuucuuGAucuuccGUU (sense CGGAAGAUCAAGAAAUACATT; antisense UGUAUUUCUUGAUCUUCCGUU; sense: DNA at AGT, 2'-fluoro at CU, [invAb] at 5' end, 3' end, backbone not given here; antisense: sugars from the 5' end rrrmffffffmmffffffmmm, backbone not given here)” are 59%, 54%, 43% and −3 ± 14%.
The corresponding values for “29282-DC: siNA duplex, ICAM-1 target site 2113 (h); sense B cGcAucuGAucuGuAGucA TTB; antisense UGAcuAcAGAucAGAuGcGUU (sense CGCAUCUGAUCUGUAGUCATT; antisense UGACUACAGAUCAGAUGCGUU; sense: DNA at AGT, 2'-fluoro at CU, [invAb] at 5' end, 3' end, backbone not given here; antisense: sugars from the 5' end rrrffmfmmmffmmmfmfmmm, backbone not given here)” are 87%, 64%, 61% and 3 ± 6%.
For the substance “29284-DC: siNA duplex, ICAM-1 target site 1141 (h); sense B cucAGucAGuGuGAccGcA TTB; antisense UGCGGucAcAcuGAcuGAGUU (sense CUCAGUCAGUGUGACCGCATT; antisense UGCGGUCACACUGACUGAGUU; sense: DNA at AGT, 2'-fluoro at CU, [invAb] at 5' end, 3' end, backbone not given here; antisense: sugars from the 5' end rrrmmffmfmffmmffmmmmm, backbone not given here)”, in the data set with ICAM-1 protein, the “ICAM-1 Protein % KD 24 h, 10 nM” value was found to be 64%; the “ICAM-1 Protein % KD 48 h, 10 nM” value amounted to 53%; the “ICAM-1 Protein % KD 72 h, 10 nM” value was found to be 44%. Further, the “% KD ICAM-2 1 nM” value in data set [1] came out at 6 ± 11%.
On the same counts, the results for “29288-DC: siNA duplex, ICAM-1 target site 2046 (h); sense B cAuuGuccucAGucAGAuA TTB; antisense UAUcuGAcuGAGGAcAAuGUU (sense CAUUGUCCUCAGUCAGAUATT; antisense UAUCUGACUGAGGACAAUGUU; sense: DNA at AGT, 2'-fluoro at CU, [invAb] at 5' end, 3' end, backbone not given here; antisense: sugars from the 5' end rrrffmmffmmmmrfmmfmmm, backbone not given here)” are 52%, 52%, 47% and −9 ± 18%.
Turning to “48722-DC: siNA duplex, ICAM-1 target site 2240 (h); sense B GAcAuAcAAcuGGGAAAuA TTB; antisense UAUuucccAGuuGuAuGucUU (sense GACAUACAACUGGGAAAUATT; antisense UAUUUCCCAGUUGUAUGUCUU; sense: DNA at AGT, 2'-fluoro at CU, [invAb] at 5' end, 3' end, backbone not given here; antisense: sugars from the 5' end rrrfffffmmffmfmfmffmm, backbone not given here)”, in the data set with ICAM-1 protein, the “ICAM-1 Protein % KD 24 h, 10 nM” value was determined as 71%; the “ICAM-1 Protein % KD 48 h, 10 nM” value is 53%; the “ICAM-1 Protein % KD 72 h, 10 nM” value was 43%. Besides, the “% KD ICAM-2 1 nM” value in data set [1] was −15 ± 29%.

For the origin of these results see patent US20120004282A1, “RNA Interference Mediated Inhibition of the Intercellular Adhesion Molecule 1 (ICAM-1) Gene Expression Using Short Interfering Nucleic Acid (siNA)” (Merck Sharp & Dohme Corp,, priority 2009, published 2012).
